From US20160320368A1, “METHOD AND APPARATUS FOR PREDICTING EFFECTIVE DOSE OR SENSITIVITY OF 5-HYDROXY-1H-IMIDAZOLE-4-CARBOXAMIDE, METHOD FOR DETERMINING AMOUNT OF XANTHOSINE MONOPHOSPHATE, AND TREATMENT AGENT AND METHOD FOR TREATING MYELODYSPLASTIC SYNDROME” (FUJIFILM Corporation, priority 2014, published 2016) come the findings set out here.

A short description of series [1]: PK test of Compound A, single oral administration, plasma concentration. The note with it: from 10 mg/kg up to 80 mg/kg. Type of series: in vivo, female mice (BALB/cAJcl). As for the experimental part:
Non-fasting female mice (BALB/cAJcl) were given a single oral administration of the test compound (10 mg/kg, 40 mg/kg, 80 mg/kg and 160 mg/kg in terms of Compound A).
V1/F, K01, K10, K12 and K21, pharmacokinetic parameters of the two-compartment model, were calculated from the plasma concentration course of Compound A when Compound A was given as a single oral administration. These parameters were used to predict the plasma concentration course of Compound A upon repeated administration in a variety of dosage regimen. […] The parameter of 160 mg/kg was used to carry out the prediction for 120 mg/kg and 240 mg/kg. […] PK parameters (Cmax, Time above IC50 and AUC0-48) were plotted on the X axis, and the inhibition rate of tumor volume was plotted on the Y axis.

In series [2] the test system is XMP in human myeloid leukemia cells K562. Briefly: XMP in human myeloid leukemia cells K562 (LC-MS/MS). Type of series: cell-based. Particulars: 24 hours, non-treated = 100%. As to the method:
(§1) A ¾ hydrate of Compound A was used as a test compound.
K562 (available from Riken BioResource Center) was used as a human myeloid leukemia cell.
2×10^7 human myeloid leukemia cells were suspended in a culture flask containing 18 mL of an RPMI1640 medium (manufactured by Life Technologies, Inc.). 2 mL of a PBS solution of the test compound (0 μg/mL, 10 μg/mL, 100 μg/mL, or 1000 μg/mL in terms of Compound A) was added to the flask which was then incubated at 37° C. under 5% CO2 for 24 hours. After centrifugation at 20° C. and 300×g for 3 min, the supernatant was removed and suspended in 10 mL of a PBS solution. Then, after centrifugation at 4° C. and 300×g for 5 min, the supernatant was removed. After stirring with addition of 1000 μL of methanol, 500 μL of ultrapure water was added thereto, followed by further stirring. 600 μL of the reaction solution was divided into each of two tubes, and 400 μL of chloroform was added to each tube. The reaction solution was stirred and then centrifuged at 4° C. and 10000×g for 15 min. 400 μL of the aqueous phase was recovered and added to an ultrafiltration tube, followed by centrifugation at 12° C. and 9200×g for 2 hours. The filtrates were combined and then dried under reduced pressure at 40° C. for 2 hours by using a centrifugal evaporator. After drying, the resulting product was stored in a freezer at −80° C.
The samples stored in (1) and (2) were returned to room temperature and 40 μL of ultrapure water was added to each sample. The mixture was stirred and centrifuged at 4° C. and 21500×g for 5 min. 35 μL of the supernatant was transferred to a vial. After storage at 4° C., XMP in samples was determined in the LC-MS/MS determination instrument, LC conditions and MS/MS conditions described in Example 3 (3).
Amounts of XMP (%) were calculated assuming that the XMP value of a non-Compound A treated group (peak area value) is defined as 100%.

Series [3] has as its system XMP in whole blood. Briefly: XMP in whole blood (Example 5). Type of series: cell-based, human. The note with it: 37° C., 8 hours, non-treated = 100%. As to the method:
A ¾ hydrate of Compound A was used s a test compound.
450 μL of the blood collected from two healthy individuals by heparinized blood collection (Analyte A and Analyte B) was added to each tube, and 50 μL of a PBS solution of the test compound (0 μg/mL, 10 μg/mL, 30 μg/mL, 100 μg/mL, 300 μg/mL, or 1000 μg/mL in terms of Compound A) for each concentration was added to each tube. The reaction mixture was stirred in an incubator at 37° C. for 8 hours.
(§2) 400 μL of methanol was added to 100 μL of the blood sample obtained in (1). After stirring, 400 μL of chloroform was added, followed by further stirring. 120 μL of ultrapure water was added thereto, followed by stirring and then centrifugation at 4° C. and 10000×g for 15 min. 400 μL of the aqueous phase was recovered and added to an ultrafiltration tube, followed by centrifugation at 12° C. and 9200×g for 2 hours. The filtrate was dried under reduced pressure at 40° C. for 2 hours by using a centrifugal evaporator. After drying, the resulting product was stored in a freezer at −80° C.
The samples obtained in (2-1) and (2-2) were returned to room temperature and 40 μL of ultrapure water was added to each sample. The mixture was stirred and centrifuged at 4° C. and 21500×g for 5 min. 35 μL of the supernatant was transferred to a vial. After storage at 4° C., XMP in samples was determined in the LC-MS/MS determination instrument, LC conditions and MS/MS conditions described in Example 3 (3).
Amounts of XMP (%) were calculated assuming that amounts of XMP in a non-Compound A treated group are defined as 100%.

Series [4] has as its system XMP in whole blood. Nature of the series: XMP in whole blood (Example 8). The note with it: 37° C., 8 hours, non-treated = 100%. Type of series: cell-based, human. As for the experimental part:
as §1
(§3) 450 μL of the blood collected from healthy individuals by heparinized blood collection was added to each tube, and 50 μL of a PBS solution of the test compound (0 μg/mL, 1 μg/mL, 10 μg/mL, or 100 μg/mL in terms of Compound A) for each concentration was added to each tube. The reaction mixture was stirred in an incubator at 37° C. for 8 hours.
as §2
(§4) The samples obtained in (2) were returned to room temperature and 40 μL of ultrapure water was added to each sample. The mixture was stirred and centrifuged at 4° C. and 21500×g for 5 min. 35 μL of the supernatant was transferred to a vial. After storage at 4° C., XMP, GMP and GTP in the samples were determined in the LC-MS/MS determination instrument and LC conditions described in Example 3 (3), and MS/MS conditions shown in Table 15.
(§5) Amounts of XMP, GMP and GTP (%) were calculated assuming that the XMP, GMP and GTP values of a non-Compound A treated group (peak area value) are defined as 100%.

Another series deals with GMP in whole blood. Briefly: GMP in whole blood (Example 8). Particulars: 37° C., 8 hours, non-treated = 100%. Type of series: cell-based, human. As to the method:
as §1, §3, §2, §4, §5

For the next series, the system named is GTP in whole blood. Briefly: GTP in whole blood (Example 8). Type of series: cell-based, human. Particulars: 37° C., 8 hours, non-treated = 100%. As to the method:
as §1, §3, §2, §4, §5

For `NC(=O)c1nc[nH]c1O` [Compound A, 5-Hydroxy-1H-imidazole-4-carboxamide], in series [1], the “linearity of plasma pharmacokinetics” value is “linearity was recognized”. Further, the “Amount of XMP (%) K562” value in series [2] (Compound A 1 μg/mL) turned out to be 52%; in series [2] (Compound A 10 μg/mL), 15%; in series [2] (Compound A 100 μg/mL), 6%. Moreover, the “Amount of XMP (%) Analyte A Whole blood” value in the series on XMP in whole blood [3] (Compound A 1 μg/mL) stood at 57%; in the series with XMP in whole blood [3] (Compound A 3 μg/mL), 53%; with XMP in whole blood [3] (Compound A 10 μg/mL) it was 47%; with XMP in whole blood [3] (Compound A 30 μg/mL) it was 26%; in the series on XMP in whole blood [3] (Compound A 100 μg/mL), 15%. The “Amount of XMP (%) Analyte B Whole blood” value is given as 44% with XMP in whole blood [3] (Compound A 1 μg/mL); 27% with XMP in whole blood [3] (Compound A 3 μg/mL); 15% in the series on XMP in whole blood [3] (Compound A 10 μg/mL); 11% in the series on XMP in whole blood [3] (Compound A 30 μg/mL); 9% in the series on XMP in whole blood [3] (Compound A 100 μg/mL). Further, the results for the “Amount of each compound in whole blood (%) XMP” value in the series on XMP in whole blood [4] (Compound A 1 μg/mL), with XMP in whole blood [4] (Compound A 10 μg/mL) and in the series on XMP in whole blood [4] (Compound A 100 μg/mL) were 55%, 30% and 13%, respectively. The “Amount of each compound in whole blood (%) GMP” value in the series on GMP in whole blood (Compound A 1 μg/mL) was found to be 85%; in the series with GMP in whole blood (Compound A 10 μg/mL) it was 85%; in the series with GMP in whole blood (Compound A 100 μg/mL), 91%. Further, the “Amount of each compound in whole blood (%) GTP” value worked out at 89% in the series with GTP in whole blood (Compound A 1 μg/mL), 86% in the series with GTP in whole blood (Compound A 10 μg/mL) and 79% in the series on GTP in whole blood (Compound A 100 μg/mL).
